Experimental findings from patent US9957271B2, “Substituted bicyclic aza-heterocycles and analogues as sirtuin modulators” (GlaxoSmithKline, LLC, priority 2012, dated 2018) are described below.

For this test, the target named is T1, SIRT1 (Homo sapiens, UniProt Q96EB6).
T1 sequence (Q96EB6 1-747): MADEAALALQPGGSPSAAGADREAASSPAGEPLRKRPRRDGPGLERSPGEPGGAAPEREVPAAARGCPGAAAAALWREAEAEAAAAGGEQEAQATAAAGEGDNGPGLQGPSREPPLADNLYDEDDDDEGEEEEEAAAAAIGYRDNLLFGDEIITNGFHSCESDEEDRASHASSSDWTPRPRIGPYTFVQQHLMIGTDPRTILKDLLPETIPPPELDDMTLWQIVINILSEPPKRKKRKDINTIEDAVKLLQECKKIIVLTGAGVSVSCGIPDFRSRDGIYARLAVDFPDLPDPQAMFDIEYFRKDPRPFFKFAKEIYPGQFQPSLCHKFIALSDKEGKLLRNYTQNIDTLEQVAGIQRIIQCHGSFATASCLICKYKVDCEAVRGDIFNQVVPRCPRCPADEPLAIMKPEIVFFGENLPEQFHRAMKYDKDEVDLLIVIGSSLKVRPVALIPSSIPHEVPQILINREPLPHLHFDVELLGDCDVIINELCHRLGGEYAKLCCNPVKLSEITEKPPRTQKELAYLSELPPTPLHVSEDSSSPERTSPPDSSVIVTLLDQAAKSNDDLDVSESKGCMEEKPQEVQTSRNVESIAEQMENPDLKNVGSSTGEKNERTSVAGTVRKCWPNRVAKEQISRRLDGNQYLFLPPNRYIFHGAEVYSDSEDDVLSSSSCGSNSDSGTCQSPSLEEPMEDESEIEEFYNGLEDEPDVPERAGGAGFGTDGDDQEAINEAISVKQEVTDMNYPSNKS
The test is described as follows: Trp mass spectrometry assay of SIRT1 activity. It is filed as biochemical. The note with it: Trp assay; for Trp EC1.5 (μM): concentration giving 150% activation of SIRT1; for Emax: percent maximum fold activation, read-out: Trp % Fold Act. The source says:
Mass spectrometry based assays were used to identify modulators of SIRT1 activity. The TAMRA based assay utilized a peptide having 20 amino acid residues as follows: Ac-EE-K(biotin)-[…](Ac)NleSTEG-K(5TMR)-EE-NH2 (SEQ ID NO: 1), wherein K(Ac) is an acetylated lysine residue and Nle is a norleucine. The peptide was labeled with the fluorophore 5TMR (excitation 540 nm/emission 580 nm) at the C-terminus. The sequence of the peptide substrate was based on p53 with several modifications. In addition, the methionine residue naturally present in the sequence was replaced with the norleucine because the methionine may be susceptible to oxidation during synthesis and purification. The Trp based assay utilized a peptide having an amino acid residues as follows: Ac-R-H-K-K(Ac)-W-NH2 (SEQ ID NO: 2).
The Trp mass spectrometry assay was conducted as follows. 0.5 μM peptide substrate and 120 μM βNAD^+ were incubated with 10 nM SIRT1 for 25 minutes at 25° C. in a reaction buffer (50 mM HEPES pH 7.5, […], 1 mM DTT, 0.05% BSA). The SIRT1 protein was obtained by cloning the SirT1 gene into a T7-promoter containing vector, which was then expressed in BL21(DE3) bacterial cells and purified as described in further detail below. Test compound was added at varying concentrations to this reaction mixture and the resulting reactions were monitored. After the 25 minute incubation with SIRT1, 10 μL of 10% formic acid was added to stop the reaction. The resulting reactions were sealed and frozen for later mass spec analysis. The relative SIRT1 activity was then determined by measuring the amount of O-acetyl-ADP-ribose (OAADPR) formed (or, alternatively, the amount of deacetylated Trp peptide generated) by the NAD-dependent sirtuin deacetylation reaction in the presence of varying concentrations of the test compound versus control reactions lacking the test compound. The degree to which the test agent activated deacetylation by SIRT1 was expressed as EC1.5 (i.e., the concentration of compound required to increase SIRT1 activity by 50% over the control lacking test compound), and Percent Maximum Activation (i.e., the maximum activity relative to control (100%) obtained for the test compound).
A control for inhibition of sirtuin activity was conducted by adding 1 μL of 500 mM nicotinamide as a negative control at the start of the reaction (e.g., permits determination of maximum sirtuin inhibition). A control for activation of sirtuin activity was conducted using 10 nM of sirtuin protein, with 1 μL of DMSO in place of compound, to determine the amount of deacetylation of the substrate at a given time point within the linear range of the assay. This time point was the same as that used for test compounds and, within the linear range, the endpoint represents a change in velocity.
For the above assay, SIRT1 protein was expressed and purified as follows. The SirT1 gene was cloned into a T7-promoter containing vector and transformed into BL21(DE3). The protein was expressed by induction with 1 mM IPTG as an N-terminal His-tag fusion protein at 18° C. overnight and harvested at 30,000×g. Cells were lysed with lysozyme in lysis buffer (50 mM Tris-HCl, 2 mM Tris[2-carboxyethyl]phosphine (TCEP), 10 μM ZnCl2, 200 mM NaCl) and further treated with sonication for […] for complete lysis. The protein was purified over a Ni-NTA column (Amersham) and fractions containing pure protein were pooled, concentrated and run over a sizing column (Sephadex S200 26/60 global). The peak containing soluble protein was collected and run on an Ion-exchange column (MonoQ). Gradient elution (200 mM-500 mM NaCl) yielded pure protein. This protein was concentrated and dialyzed against dialysis buffer (20 mM Tris-HCl, 2 mM TCEP) overnight. The protein was aliquoted and frozen at −80° C. until further use.

Consider `O=C(Nc1ccccn1)c1cnc2ccc(-c3cccc(OC[C@H](O)CO)c3)nn12` [Compound 847], for which the “Trp EC1.5 (μM)” value was “A (EC1.5<1 μM)” and the Emax was no less than 350%.
With `Cc1cccc(NC(=O)c2cnc3ccc(-c4cccc(OC[C@H](O)CO)c4)nn23)n1` [Compound 848], the “Trp EC1.5 (μM)” value is on record as “A (EC1.5<1 μM)” and the Emax is no less than 350%.
In the same order, the values of `Cc1cccc(NC(=O)c2c(C)nc3c(OC[C@H](O)CO)cc(-c4ccccc4C(F)(F)F)nn23)n1` [Compound 849] are “A (EC1.5<1 μM)” and no less than 350%.
Regarding `Cc1cc(NC(=O)c2c(C)nc3c(OC[C@H](O)CO)cc(-c4ccccc4C(F)(F)F)nn23)nc(C)n1` [Compound 850], the “Trp EC1.5 (μM)” value is “A (EC1.5<1 μM)” and the Emax was no less than 350%.
In the same order, the values of `O=C(Nc1ccncn1)c1cnc2ccc(N3CC[C@H](F)C3)nn12` [Compound 851] are “B (EC1.5 1-25 μM)” and less than 350%.
The corresponding values for `Cc1nc2ccc(N3CC[C@H](F)C3)nn2c1C(=O)Nc1ncccn1` [Compound 852] are “B (EC1.5 1-25 μM)” and no less than 350%.
In the same order, the values of `O=C(Nc1cnccn1)c1cnc2ccc(N3CC[C@H](F)C3)nn12` [Compound 853] are “C (EC1.5>25 μM)” and less than 350%.
Turning to `O=C(Nc1ncccn1)c1cnc2ccc(N3CC[C@H](F)C3)nn12` [Compound 854], the “Trp EC1.5 (μM)” value is “B (EC1.5 1-25 μM)” and the Emax was less than 350%.
For the molecule `Cc1nc2ccc(N3CC[C@H](F)C3)nn2c1C(=O)Nc1ccncn1` [Compound 855], the “Trp EC1.5 (μM)” value is recorded as “B (EC1.5 1-25 μM)” and the Emax was no less than 350%.
In the same order, the values of `O=C(Nc1cccnn1)c1cnc2ccc(N3CC[C@H](F)C3)nn12` [Compound 856] are “B (EC1.5 1-25 μM)” and less than 350%.
In the same order, the values of `Cc1nc2ccc(N3CC[C@H](F)C3)nn2c1C(=O)Nc1cccnn1` [Compound 857] are “A (EC1.5<1 μM)” and no less than 350%.
The corresponding values for `O=C(Nc1cccnc1)c1cnc2ccc(-c3cccc(OC[C@H](O)CO)c3)nn12` [Compound 858] are “B (EC1.5 1-25 μM)” and less than 350%.
For the molecule `Cc1ccnc(NC(=O)c2c(C)nc3c(OC[C@H](O)CO)cc(-c4ccccc4C(F)(F)F)nn23)c1` [Compound 859], the “Trp EC1.5 (μM)” value is “A (EC1.5<1 μM)” and the Emax is no less than 350%.
The corresponding values for `Cc1cc(NC(=O)c2c(C)nc3c(OC[C@H](O)CO)cc(-c4ccccc4C(F)(F)F)nn23)cc(C)n1` [Compound 860] are “A (EC1.5<1 μM)” and no less than 350%.
As to `Cc1cnc(NC(=O)c2c(C)nc3c(OC[C@H](O)CO)cc(-c4ccccc4C(F)(F)F)nn23)s1` [Compound 861], the “Trp EC1.5 (μM)” value is “A (EC1.5<1 μM)” and the Emax is no less than 350%.
Take `Cc1nc2c(OC[C@H](O)CO)cc(-c3ccccc3C(F)(F)F)nn2c1C(=O)Nc1cccnc1` [Compound 862]: the “Trp EC1.5 (μM)” value is recorded as “A (EC1.5<1 μM)” and the Emax is no less than 350%.
Take `Cc1nc2c(OC[C@H](O)CO)cc(-c3ccccc3C(F)(F)F)nn2c1C(=O)Nc1ccncc1` [Compound 863]: the “Trp EC1.5 (μM)” value is “A (EC1.5<1 μM)” and the Emax is no less than 350%.
In the same order, the values of `Cc1cncc(NC(=O)c2c(C)nc3c(OC[C@H](O)CO)cc(-c4ccccc4C(F)(F)F)nn23)c1` [Compound 864] are “A (EC1.5<1 μM)” and no less than 350%.
The corresponding values for `Cc1ccc(NC(=O)c2c(C)nc3c(OC[C@H](O)CO)cc(-c4ccccc4C(F)(F)F)nn23)cn1` [Compound 865] are “A (EC1.5<1 μM)” and no less than 350%.
Consider `CN(C)[C@H]1CCN(c2ccc3ncc(C(=O)Nc4ccccn4)n3n2)C1` [Compound 866], for which the “Trp EC1.5 (μM)” value was “B (EC1.5 1-25 μM)” and the Emax is no less than 350%.
In the same order, the values of `Cc1nc2ccc(N3CC[C@H](N(C)C)C3)nn2c1C(=O)Nc1ccccn1` [Compound 867] are “B (EC1.5 1-25 μM)” and no less than 350%.
The corresponding values for `CN(C)[C@H]1CCN(c2ccc3ncc(C(=O)Nc4cccnc4)n3n2)C1` [Compound 868] are “B (EC1.5 1-25 μM)” and less than 350%.
The corresponding values for `CN(C)[C@H]1CCN(c2ccc3ncc(C(=O)Nc4ccncc4F)n3n2)C1` [Compound 869] are “B (EC1.5 1-25 μM)” and less than 350%.
Take `Cc1nc2ccc(N3CC[C@H](N(C)C)C3)nn2c1C(=O)Nc1ccncc1F` [Compound 870]: the “Trp EC1.5 (μM)” value is recorded as “C (EC1.5>25 μM)” and the Emax was less than 350%.
Regarding `Cc1nc2ccc(N3CC[C@H](N(C)C)C3)nn2c1C(=O)Nc1cnccn1` [Compound 871], the “Trp EC1.5 (μM)” value was “B (EC1.5 1-25 μM)” and the Emax is less than 350%.
In the same order, the values of `Cc1nc2ccc(N3CC[C@H](N(C)C)C3)nn2c1C(=O)Nc1ccc(F)cn1` [Compound 872] are “C (EC1.5>25 μM)” and less than 350%.
In the same order, the values of `CN(C)[C@H]1CCN(c2ccc3ncc(C(=O)Nc4cnccn4)n3n2)C1` [Compound 873] are “B (EC1.5 1-25 μM)” and no less than 350%.
The corresponding values for `CN(C)[C@H]1CCN(c2ccc3ncc(C(=O)Nc4ccc(F)cn4)n3n2)C1` [Compound 874] are “A (EC1.5<1 μM)” and less than 350%.
For the molecule `Cc1cc(NC(=O)c2cnc3ccc(-c4cccc(OC[C@H](O)CO)c4)nn23)ccn1` [Compound 875], the “Trp EC1.5 (μM)” value is reported as “C (EC1.5>25 μM)” and the Emax was less than 350%.
In the case of `CN(C)c1cccc(NC(=O)c2cnc3ccc(-c4cccc(OC[C@H](O)CO)c4)nn23)n1` [Compound 876], the “Trp EC1.5 (μM)” value was “A (EC1.5<1 μM)” and the Emax was no less than 350%.
Take `Cc1nc2ccc(N3CC[C@H](N(C)C)C3)nn2c1C(=O)Nc1cccnc1` [Compound 877]: the “Trp EC1.5 (μM)” value is listed as “B (EC1.5 1-25 μM)” and the Emax was less than 350%.
Take `CN(C)c1ccnc(NC(=O)c2cnc3ccc(-c4cccc(OC[C@H](O)CO)c4)nn23)c1` [Compound 878]: the “Trp EC1.5 (μM)” value is listed as “B (EC1.5 1-25 μM)” and the Emax is less than 350%.
For `CN(C)[C@H]1CCN(c2ccc3ncc(C(=O)Nc4cccnn4)n3n2)C1` [Compound 879], the “Trp EC1.5 (μM)” value is “B (EC1.5 1-25 μM)” and the Emax was less than 350%.
